{"source": "patent US20260258030A1", "about": "“USE AND TREATMENT METHOD OF AZETIDINE DERIVATIVE” (SICHUAN KELUN-BIOTECH BIOPHARMACEUTICAL CO., LTD., priority 2022, published 2026)", "key": {"[1]": {"system": "STAT5 phosphorylation induced by cytokine IL-2 stimulation in CD4+ T cells", "assay": "Inhibition of STAT5 phosphorylation induced by IL-2 in CD4+ T cells in human whole blood (flow cytometry)", "type": "cell-based", "excerpt": "(§1) The inhibitory effect of Compound 8 on STAT5 phosphorylation induced by cytokine IL-2 stimulation in CD4+ T cells in human whole blood, as well as on STAT3 phosphorylation induced by cytokine IL-6 stimulation in CD4+ T cells in human whole blood, was detected using flow cytometry."}, "[2]": {"system": "STAT3 phosphorylation induced by cytokine IL-6 stimulation in CD4+ T cells", "assay": "Inhibition of STAT3 phosphorylation induced by IL-6 in CD4+ T cells in human whole blood (flow cytometry)", "type": "cell-based", "excerpt": "as §1"}, "[3]": {"biological_target": "p70S6K (p70 ribosomal protein S6 kinase) (Homo sapiens, UniProt P23443)", "sequence (P23443 whole entry)": "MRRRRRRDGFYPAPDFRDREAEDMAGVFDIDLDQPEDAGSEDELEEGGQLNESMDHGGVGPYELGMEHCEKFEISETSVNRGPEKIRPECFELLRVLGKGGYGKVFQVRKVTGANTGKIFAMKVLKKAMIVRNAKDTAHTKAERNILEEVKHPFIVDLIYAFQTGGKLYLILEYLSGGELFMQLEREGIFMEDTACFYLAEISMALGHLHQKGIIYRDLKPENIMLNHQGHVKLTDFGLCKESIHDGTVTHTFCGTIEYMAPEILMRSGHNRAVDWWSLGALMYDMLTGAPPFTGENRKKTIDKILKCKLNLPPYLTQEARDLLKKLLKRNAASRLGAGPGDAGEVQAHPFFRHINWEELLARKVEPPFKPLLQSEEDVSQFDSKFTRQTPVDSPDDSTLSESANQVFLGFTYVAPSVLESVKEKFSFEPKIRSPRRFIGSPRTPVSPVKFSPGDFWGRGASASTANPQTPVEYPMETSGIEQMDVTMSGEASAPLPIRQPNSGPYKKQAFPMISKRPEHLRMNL", "assay": "In vitro kinase inhibition, enzymatic assay, p70S6K", "type": "biochemical", "details": "at a concentration of 200 nM; read-out: inhibition rate on p70S6K", "excerpt": "(§2) An in vitro enzymatic assay system was used to test the inhibitory effect of Compound 8 on certain kinase targets."}, "PKA (protein kinase A)": {"biological_target": "PKA (protein kinase A) (Homo sapiens, UniProt P17612)", "assay": "In vitro kinase inhibition, enzymatic assay, PKA", "type": "biochemical", "details": "at a concentration of 200 nM; read-out: inhibition rate on PKA", "excerpt": "as §2"}}, "data": [{"smiles": "CCS(=O)(=O)N1CC(CC#N)(n2cc(-c3ccnc4[nH]ccc34)cn2)C1", "note": "[Compound 8]", "values": [{"measurement": "IC50", "setting": "[1]", "result": "460 ± 30", "unit": "nM"}, {"measurement": "IC50", "setting": "[2]", "result": "1510 ± 60", "unit": "nM"}, {"measurement": "inhibition at 0.2 µM", "setting": "[3]", "result": 67, "unit": "%"}, {"measurement": "inhibition at 0.2 µM", "setting": "PKA (protein kinase A)", "result": 75, "unit": "%"}]}]}
